Values after ≈ are worked out from the molar mass of the structure shown.
Columns and labels:
[1] = Proliferation of exponentially growing Huh-5-2 cells (MTS method); settings: human, CC50, concentration required to inhibit the proliferation of exponentially growing Huh-5-2 cells by 50%; Table 2
Experimental: Cells were seeded at a density of 7000 cells per well in 96 well View Plate™ (Packard) in medium containing the same components as described above, except for G418. Cells were allowed to adhere and proliferate for 24 hr. At that time, culture medium was removed and serial dilutions of the test compounds were added in culture medium lacking G418. Interferon alfa 2a (500 IU) was included as a positive control. Plates were further incubated at 37° C. and 5% CO2 for 72 hours. Replication of the HCV replicon in Huh-5 cells results in luciferase activity in the cells. Luciferase activity is measured by adding 50 μl of 1×Glo-lysis buffer (Promega) for 15 minutes followed by 50 ul of the Steady-Glo Luciferase assay reagent (Promega). Luciferase activity is measured with a luminometer and the signal in each individual well is expressed as a percentage of the untreated cultures. […] Instead the density of the culture is measured by means of the MTS method (Promega).

[2] = system: HCV replicon I389luc-ubi-neo/NS3-3'/5.1; assay: Anti-HCV replicon assay (luciferase activity) in Huh-5-2 cells; assay type: cell-based, Hepatitis C virus; settings: Hepatitis C virus, Huh-5-2, 72 h, concentration required to inhibit luciferase activity in the replicon system by 50%
Outline: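 Huh-5-2 cells carrying the luciferase HCV replicon, seeded 24 h, then exposed to serial compound dilutions without G418 for 72 h at 37° C, 5% CO2. Replication read as luciferase luminescence, expressed as percentage of untreated cultures; culture density measured in parallel by MTS.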

COCCN1C(=O)c2ccccc2C(C(=O)Nc2ccn(C)n2)C1c1cccs1 (stereo not shown) [C180, 2-(2-methoxyethyl)-N-(1-methyl-1H-pyrazol-3-yl)-1-oxo-3-(thiophen-2-yl)-1,2,3,4-tetrahydroisoquinoline-4-carboxamide] showed a CC50 at 72 h [1] of 80.8 µg/mL (≈ 197 µM) and an IC50 [2] of 34.8 µg/mL (≈ 84.8 µM).
With COCCN1C(=O)c2ccccc2C(C(=O)Nc2ccc(C(=O)N(C)C)cc2)C1c1cccs1 (stereo not shown) [C139, N-(4-(dimethylcarbamoyl)phenyl)-2-(2-methoxyethyl)-1-oxo-3-(thiophen-2-yl)-1,2,3,4-tetrahydroisoquinoline-4-carboxamide] the CC50 at 72 h [1] was 75.3 µg/mL (≈ 158 µM) and the IC50 [2] was 2.74 µg/mL (≈ 5.74 µM).
Work on CNC(=O)c1ccc(NC(=O)C2c3ccccc3C(=O)N(CCOC)C2c2cccs2)cc1 (stereo not shown) [C141, 2-(2-methoxyethyl)-N-(4-(methylcarbamoyl)phenyl)-1-oxo-3-(thiophen-2-yl)-1,2,3,4-tetrahydroisoquinoline-4-carboxamide] yielded a CC50 at 72 h [1] of 73.8 µg/mL (≈ 159 µM) and an IC50 [2] of 0.63 µg/mL (≈ 1.36 µM).
COCCN1C(=O)c2ccccc2C(C(=O)Nc2ccc(-c3cccnc3)cc2)C1c1cccs1 (stereo not shown) [C173, 2-(2-methoxyethyl)-1-oxo-N-(4-(pyridin-3-yl)phenyl)-3-(thiophen-2-yl)-1,2,3,4-tetrahydroisoquinoline-4-carboxamide] gave a CC50 at 72 h [1] of 9.59 µg/mL (≈ 19.8 µM) and an IC50 [2] of 0.09 µg/mL (≈ 0.186 µM).
COCCN1C(=O)c2ccccc2C(C(=O)Nc2cccc(OC)c2)C1c1nccs1 (stereo not shown) [C102, 2-(2-methoxyethyl)-N-(3-methoxyphenyl)-1-oxo-3-(thiazol-2-yl)-1,2,3,4-tetrahydroisoquinoline-4-carboxamide] gave a CC50 at 72 h [1] of 72.8 µg/mL (≈ 166 µM) and an IC50 [2] of 26.8 µg/mL (≈ 61.3 µM).
In the case of COCCN1C(=O)c2ccccc2C(C(=O)Nc2cccc(OC)c2)C1C=C(C)C (stereo not shown) [C120, 2-(2-methoxyethyl)-N-(3-methoxyphenyl)-3-(2-methylprop-1-enyl)-1-oxo-1,2,3,4-tetrahydroisoquinoline-4-carboxamide], the CC50 at 72 h [1] is reported as 95.4 µg/mL (≈ 233 µM) and the IC50 [2] is reported as 3.28 µg/mL (≈ 8.03 µM).
COc1cccc(NC(=O)C2c3ccccc3C(=O)N(CCCN3CCOCC3)C2c2cccs2)c1 (stereo not shown) [C64, N-(3-methoxyphenyl)-2-(3-morpholinopropyl)-1-oxo-3-(thiophen-2-yl)-1,2,3,4-tetrahydroisoquinoline-4-carboxamide] showed a CC50 at 72 h [1] of 47.8 µg/mL (≈ 94.5 µM) and an IC50 [2] of 23.9 µg/mL (≈ 47.2 µM).
COCCCN1C(=O)c2ccccc2C(C(=O)Nc2cccc(OC)c2)C1c1cccs1 (stereo not shown) [C13, N-(3-methoxyphenyl)-2-(3-methoxypropyl)-1-oxo-3-(thiophen-2-yl)-1,2,3,4-tetrahydroisoquinoline-4-carboxamide] showed a CC50 at 72 h [1] of 33.3 µg/mL (≈ 73.9 µM) and an IC50 [2] of 2.11 µg/mL (≈ 4.68 µM).
Work on COCCN1C(=O)c2ccccc2C(C(=O)Nc2cccc(NC(C)=O)c2)C1c1cccs1 (stereo not shown) [C108, N-(3-acetamidophenyl)-2-(2-methoxyethyl)-1-oxo-3-(thiophen-2-yl)-1,2,3,4-tetrahydroisoquinoline-4-carboxamide] yielded a CC50 at 72 h [1] of 77.3 µg/mL (≈ 167 µM) and an IC50 [2] of 3.71 µg/mL (≈ 8 µM).
With COCCN1C(=O)c2ccccc2C(C(=O)Nc2ccc(-n3cncn3)cc2)C1c1cccs1 (stereo not shown) [C167, N-(4-(1H-1,2,4-triazol-1-yl)phenyl)-2-(2-methoxyethyl)-1-oxo-3-(thiophen-2-yl)-1,2,3,4-tetrahydroisoquinoline-4-carboxamide] the CC50 at 72 h [1] was 60 µg/mL (≈ 127 µM) and the IC50 [2] was 0.12 µg/mL (≈ 0.253 µM).
For COCCN1C(=O)c2ccccc2C(C(=O)Nc2cccc(OC)c2)C1c1ccc(Cl)s1 (stereo not shown) [C135, 3-(5-chlorothiophen-2-yl)-2-(2-methoxyethyl)-N-(3-methoxyphenyl)-1-oxo-1,2,3,4-tetrahydroisoquinoline-4-carboxamide], the CC50 at 72 h [1] was 56.7 µg/mL (≈ 120 µM) and the IC50 [2] was 0.52 µg/mL (≈ 1.1 µM).
In the case of COCCN1C(=O)c2ccccc2C(C(=O)Nc2cccc(OC)c2)C1C(C)(C)C (stereo not shown) [C57, 3-tert-Butyl-2-(2-methoxyethyl)-N-(3-methoxyphenyl)-1-oxo-1,2,3,4-tetrahydroisoquinoline-4-carboxamide], the CC50 at 72 h [1] is reported as 76.2 µg/mL (≈ 186 µM) and the IC50 [2] is reported as 39.5 µg/mL (≈ 96.1 µM).
Work on COCCN1C(=O)c2ccccc2C(C(=O)Nc2cccc(OC)c2)C1c1cc(C)nn1C (stereo not shown) [C100, 3-(1,3-dimethyl-1H-pyrazol-5-yl)-2-(2-methoxyethyl)-N-(3-methoxyphenyl)-1-oxo-1,2,3,4-tetrahydroisoquinoline-4-carboxamide] yielded a CC50 at 72 h [1] of 86.7 µg/mL (≈ 193 µM) and an IC50 [2] of 56.8 µg/mL (≈ 127 µM).
COCCN1C(=O)c2ccccc2C(C(=O)Nc2cccc(CO)c2)C1c1cccs1 (stereo not shown) [C166, N-(3-(hydroxymethyl)phenyl)-2-(2-methoxyethyl)-1-oxo-3-(thiophen-2-yl)-1,2,3,4-tetrahydroisoquinoline-4-carboxamide] gave a CC50 at 72 h [1] of 64.3 µg/mL (≈ 147 µM) and an IC50 [2] of 0.38 µg/mL (≈ 0.87 µM).
With COCCN1C(=O)c2ccccc2C(C(=O)Nc2ccc(F)cc2)C1c1cccs1 (stereo not shown) [C95, N-(4-fluorophenyl)-2-(2-methoxyethyl)-1-oxo-3-(thiophen-2-yl)-1,2,3,4-tetrahydroisoquinoline-4-carboxamide] the CC50 at 72 h [1] was 76.3 µg/mL (≈ 180 µM) and the IC50 [2] was 2.21 µg/mL (≈ 5.21 µM).
COCCN1C(=O)c2ccccc2C(C(=O)Nc2ccc(-c3nnc(C)o3)cc2)C1c1cccs1 (stereo not shown) [C205, 2-(2-methoxyethyl)-N-(4-(5-methyl-1,3,4-oxadiazol-2-yl)phenyl)-1-oxo-3-(thiophen-2-yl)-1,2,3,4-tetrahydroisoquinoline-4-carboxamide] showed a CC50 at 72 h [1] of 38.8 µg/mL (≈ 79.5 µM) and an IC50 [2] of 0.034 µg/mL (≈ 0.0696 µM).
For COCCn1c(-c2cccs2)c(C(=O)Nc2cccc(OC)c2)c2ccccc2c1=O [C32, 2-(2-methoxyethyl)-N-(3-methoxyphenyl)-1-oxo-3-(thiophen-2-yl)-1,2-dihydroisoquinoline-4-carboxamide], the CC50 at 72 h [1] was 73.7 µg/mL (≈ 170 µM) and the IC50 [2] was 37.3 µg/mL (≈ 85.8 µM).
Work on COCCN1C(=O)c2ccccc2C(C(=O)Nc2cccc(OC)c2)C1C1CCCC1 (stereo not shown) [C118, 3-cyclopentyl-2-(2-methoxyethyl)-N-(3-methoxyphenyl)-1-oxo-1,2,3,4-tetrahydroisoquinoline-4-carboxamide] yielded a CC50 at 72 h [1] of 98.2 µg/mL (≈ 233 µM) and an IC50 [2] of 8.32 µg/mL (≈ 19.7 µM).
With COCCN1C(=O)c2ccccc2C(C(=O)Nc2cc(C)on2)C1c1cccs1 (stereo not shown) [C126, 2-(2-methoxyethyl)-N-(5-methylisoxazol-3-yl)-1-oxo-3-(thiophen-2-yl)-1,2,3,4-tetrahydroisoquinoline-4-carboxamide] the CC50 at 72 h [1] was 58.1 µg/mL (≈ 141 µM) and the IC50 [2] was 0.9 µg/mL (≈ 2.19 µM).
Work on COCCN1C(=O)c2ccccc2C(C(=O)NCCc2cn(C)c3ccccc23)C1c1cccs1 (stereo not shown) [C44, 2-(2-Methoxyethyl)-N-(2-(1-methyl-1H-indol-3-yl)ethyl)-1-oxo-3-(thiophen-2-yl)-1,2,3,4-tetrahydroisoquinoline-4-carboxamide] yielded a CC50 at 72 h [1] of 28.4 µg/mL (≈ 58.2 µM) and an IC50 [2] of 4.17 µg/mL (≈ 8.55 µM).
Work on COCCN1C(=O)c2ccccc2C(C(=O)Nc2cccc(OC)c2)C1c1ccsc1 (stereo not shown) [C11, 2-(2-Methoxyethyl)-N-(3-methoxyphenyl)-1-oxo-3-(thiophen-3-yl)-1,2,3,4-tetrahydroisoquinoline-4-carboxamide] yielded a CC50 at 72 h [1] of 37.9 µg/mL (≈ 86.8 µM) and an IC50 [2] of 1.2 µg/mL (≈ 2.75 µM).
In the case of COCCN1C(=O)c2ccccc2C(C(=O)Nc2cccc(-n3cncn3)c2)C1c1cccs1 (stereo not shown) [C200, N-(3-(1H-1,2,4-triazol-1-yl)phenyl)-2-(2-methoxyethyl)-1-oxo-3-(thiophen-2-yl)-1,2,3,4-tetrahydroisoquinoline-4-carboxamide], the CC50 at 72 h [1] is reported as 59.4 µg/mL (≈ 125 µM) and the IC50 [2] is reported as 0.32 µg/mL (≈ 0.676 µM).
For COc1cccc(NC(=O)C2c3ccccc3C(=O)N(CCO)C2c2cccs2)c1 (stereo not shown) [C23, 2-(2-Hydroxyethyl)-N-(3-methoxyphenyl)-1-oxo-3-(thiophen-2-yl)-1,2,3,4-tetrahydroisoquinoline-4-carboxamide], the CC50 at 72 h [1] was 118 µg/mL (≈ 280 µM) and the IC50 [2] was 43 µg/mL (≈ 102 µM).
